Reference: PubChem BioAssay (NCI)
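GI50: concentration for 50% inhibition of growth. At the TGI there is no net growth.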

What was measured:
Assay in all cases: NCI anticancer screen, dose series, 384-well format
[1] = tested on: BT-549 breast
[2] = tested on: COLO 205 colon
[3] = tested on: HCT-116 colon
[4] = tested on: HS 578T breast
[5] = tested on: SF-295 CNS
[6] = tested on: SF-539 CNS
[7] = tested on: SK-MEL-28 melanoma
[8] = tested on: SK-OV-3 ovarian
[9] = tested on: SN12C renal
[10] = tested on: SW-620 colon
[11] = tested on: TK-10 renal
[12] = tested on: U251 glioblastoma
[13] = tested on: UACC-62 melanoma

Structure (SMILES): O=C1Nc2ccc(I)cc2/C1=C/c1cc(Br)c(O)c(Br)c1
- GI50 [1]: 11.7 µM
- TGI [1]: 26.8 µM
- GI50 [2]: 10.2 µM
- TGI [2]: 23.5 µM
- GI50 [3]: 16.3 µM
- TGI [3]: 30.4 µM
- GI50 [4]: 14.4 µM
- TGI [4]: 28.5 µM
- GI50 [5]: 11.9 µM
- TGI [5]: 34.2 µM
- GI50 [6]: 15.4 µM
- TGI [6]: 30.1 µM
- GI50 [7]: 6.3 µM
- TGI [7]: 34.8 µM
- GI50 [8]: 16.2 µM
- TGI [8]: 34.8 µM
- GI50 [9]: 21.6 µM
- TGI [9]: 48.5 µM
- GI50 [10]: 16.9 µM
- TGI [10]: 31.4 µM
- GI50 [11]: 21.6 µM
- TGI [11]: 78.1 µM
- GI50 [12]: 11.7 µM
- TGI [12]: 24.3 µM
- GI50 [13]: 7.69 µM
- TGI [13]: 21 µM
